Measurements published in patent publication US4849335A, “Method for detecting the mutagenicity of substances susceptible of inducing the deterioration of cellular DNA, utilizing the production of an SOS response” (priority 1982, dated 1989).

Legend:
Format in all cases: cell-based, E. coli strain PQ37
alkaline phosphatase = alkaline phosphatase activity in E. coli PQ37 culture; settings: FIG. 1 curve b; beyond a certain concentration of genotoxic substance; 2 hours
Description: (§1) The micro-organism employed in the tests whose description follows is a transformed E. coli strain, named PQ37, deposited in the National Collection of Culture Micro-Organisms (C.N.C.M.) of the Pasteur Institute of Paris, under no. I-205 on the date of Sept. 24, 1982. The genetic characteristics of this micro-organism are as follows: F^- thr leu his-4 pyrD thi galE galK or T lacΔUI69 srl 300::Tn10 rpoB rpsL uvrA rfa trp::Muc^+ sfiA::Mud(AP, lac)c-Ts. It is constitutive for the synthesis of the alkaline phosphatase (Pho^c). […]
A culture of the abovesaid micro-organism previously developed up to the exponential phase in LB culture medium (Bacto tryptone 10 g, Bacto yeast extract 5 g, NaC1 10 g, water Q.S.P. 1 1), also containing ampicillin, is diluted ten times either in fresh medium, or in the activation mixture described by AMES B.N. and Coll. […] After two hours incubation at 37° C. with shaking, the β-galoactosidase and alkaline phosphatase activities were determined.
It is possible in particular to carry out the determination of the alkaline phosphatase under the following condition: 2.7 ml of T buffer (solution of 121 g of Tris (hydroxy-methyl)-aminomethane per liter, whose pH has been adjusted to 8.8 with HC1) were added to 0.3 ml of the cell culture. […] 5 minutes later, 1 ml of 2 N Tris is added to restore the color, which is measured in the spectrophotometer at 420 nm. […]

[1] = test system: sfiA::operon lacZ recombinant; settings: FIG. 1 curve c; measured 2 hours after the start of the experiment; inhibitory concentrations
Description: FIGS. 2 and 3 contain the curves representing the variations of the logarithm of the abovesaid ratio, named below SOSIF (abbreviation of "SOS induction factor"), measurable in similar cultures, in the presence of different genotoxic substances, according to their respective concentrations in the culture media, in nanomoles per specimen tested.
as §1
A culture of the abovesaid micro-organism previously developed up to the exponential phase in LB culture medium (Bacto tryptone 10 g, Bacto yeast extract 5 g, NaC1 10 g, water Q.S.P. 1 1), also containing ampicillin, is diluted ten times either in fresh medium, or in the activation mixture described by AMES B.N. and Coll. […] After two hours incubation at 37° C. with shaking, the β-galoactosidase and alkaline phosphatase activities were determined. […]

β-galactosidase = β-galactosidase activity in E. coli PQ37 culture; settings: FIG. 1 curve a; beyond a certain concentration of genotoxic substance; 2 hours
Description: The micro-organism employed in the tests whose description follows is a transformed E. coli strain, named PQ37, deposited in the National Collection of Culture Micro-Organisms (C.N.C.M.) of the Pasteur Institute of Paris, under no. I-205 on the date of Sept. 24, 1982. The genetic characteristics of this micro-organism are as follows: F^- thr leu his-4 pyrD thi galE galK or T lacΔUI69 srl 300::Tn10 rpoB rpsL uvrA rfa trp::Muc^+ sfiA::Mud(AP, lac)c-Ts. It is constitutive for the synthesis of the alkaline phosphatase (Pho^c).
This strain has been obtained by genetic recombinations suitable to confer on it the above-indicated genotype, from the strain containing the recombinant sfiA::lacZ deposited at the C.N.C.M., under no. I-152 Apr. 13, 1981.
A culture of the abovesaid micro-organism previously developed up to the exponential phase in LB culture medium (Bacto tryptone 10 g, Bacto yeast extract 5 g, NaC1 10 g, water Q.S.P. 1 1), also containing ampicillin, is diluted ten times either in fresh medium, or in the activation mixture described by AMES B.N. and Coll. (1975), "Mutation Research" 31, 347-364. Aliquot parts of 0.6 ml are distributed in glass test tubes each containing a certain dose of the substance under test. After two hours incubation at 37° C. with shaking, the β-galoactosidase and alkaline phosphatase activities were determined. […]

## O=[N+]([O-])c1cc[n+]([O-])c2ccccc12 [4NQO, 4-nitroquinoline-1-oxide]
Alkaline phosphatase
  alkaline phosphatase activity (inhibiting effect of the synthesis of the proteins): reduction
[1]
  SOSIF ratio at concentrations of the genotoxic substance which inhibit the synthesis of the proteins: remains substantially constant
β-galactosidase
  β-galactosidase activity (inhibiting effect of the synthesis of the proteins): reduction
